Experimental data: patent US9139557B2, “Carboxamide compounds and their use as calpain inhibitors” (Abbott GmbH & Co. KG, priority 2006, dated 2015)

Assays:
Format in all cases: biochemical
calpain-I = biological target: T1, calpain-I (Homo sapiens, UniProt P07384); experiment: Calpain I enzyme inhibition in vitro (kinetic fluorescence assay)
T1 construct: calpain-I—isolated from human erythrocytes; purchased Calbiochem 208713; host or cells: human erythrocytes (tissue isolate)
T1 sequence (P07384 2-714 limits assumed): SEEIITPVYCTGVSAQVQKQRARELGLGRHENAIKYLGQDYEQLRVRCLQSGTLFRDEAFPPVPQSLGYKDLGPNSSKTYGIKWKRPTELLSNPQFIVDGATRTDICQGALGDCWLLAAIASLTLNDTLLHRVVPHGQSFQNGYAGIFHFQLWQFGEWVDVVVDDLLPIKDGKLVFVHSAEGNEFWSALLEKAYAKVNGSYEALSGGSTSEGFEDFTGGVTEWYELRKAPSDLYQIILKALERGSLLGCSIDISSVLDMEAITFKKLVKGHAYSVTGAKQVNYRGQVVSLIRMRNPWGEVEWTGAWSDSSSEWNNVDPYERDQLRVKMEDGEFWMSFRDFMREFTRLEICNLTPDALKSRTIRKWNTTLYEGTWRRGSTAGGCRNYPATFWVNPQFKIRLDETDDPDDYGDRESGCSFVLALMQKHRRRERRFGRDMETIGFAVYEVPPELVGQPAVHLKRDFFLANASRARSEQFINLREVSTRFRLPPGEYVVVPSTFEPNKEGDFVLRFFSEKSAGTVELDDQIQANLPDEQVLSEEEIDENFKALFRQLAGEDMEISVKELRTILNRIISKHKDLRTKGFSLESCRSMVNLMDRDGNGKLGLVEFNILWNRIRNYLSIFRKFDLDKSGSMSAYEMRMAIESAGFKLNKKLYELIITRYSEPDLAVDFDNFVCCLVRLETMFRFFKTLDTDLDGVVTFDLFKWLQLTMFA
T1 sequence (P04632 1-268 partner): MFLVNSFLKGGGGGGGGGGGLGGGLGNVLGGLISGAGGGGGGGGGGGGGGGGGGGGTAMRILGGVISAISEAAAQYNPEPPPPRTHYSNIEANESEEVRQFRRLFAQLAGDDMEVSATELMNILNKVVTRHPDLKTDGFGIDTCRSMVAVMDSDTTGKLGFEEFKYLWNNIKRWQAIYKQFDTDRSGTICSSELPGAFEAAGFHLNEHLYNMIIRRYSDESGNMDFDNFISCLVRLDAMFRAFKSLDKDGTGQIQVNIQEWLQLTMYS
Method: Testing for blockade of the corresponding enzymic activities was carried out by means of kinetic fluorescence assays (excitation 390 nm, emission 460 nm).
Apparent Ki values were calculated from the experimentally determined IC50 values by the Cheng-Prussoff relation assuming a reversible competitive enzyme inhibition. The Km values of the substrates used under the assay conditions indicated above were: 90 μM (Z-Phe-Arg-AMC, cathepsin B), 10 μM (Z-Gly-Pro-Arg-AMC, cathepsin K), 2 μM (Z-Phe-Arg-AMC, cathepsin L), and 30 μM (Z-Val-Val-Arg-AMC, cathepsin S).
The indicated Ki values are averages of the inhibition constants calculated on the basis of 2 to 4 independent dose-effect plots.
• 1. Calpain I: • 20 nM calpain-I—isolated from human erythrocytes (Calbiochem #208713), 100 μM Suc-Leu-Tyr-AMC (Bachem #1-1355) as substrate in buffer with 62 mM imidazole, 0.3 mM CaCl2, 0.10% CHAPS, 0.05% BSA, 1 mM DTT at pH 7.3 and room temperature. • 2. Cathepsin B: • 0.25 nM cathepsin B—isolated from human liver (Calbiochem #219362), 100 μM Z-Phe-Arg-AMC (Bachem #1-1160) as substrate 50 mM MES, 2 mM EDTA, 0.05% Brij 35, 2.5 mM L-cysteine, pH 6.0, room temperature. • 3. […]

cathepsin S = biological target: T2, cathepsin S (Homo sapiens, UniProt P25774); experiment: Cathepsin S enzyme inhibition in vitro (kinetic fluorescence assay); conditions: Ki(cathepsin S)/Ki(calpain) ratio
T2 construct: purchased Calbiochem 219343; host or cells: E. coli
Outline: (§1)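 Kinetic fluorescence (ex 390/em 460 nm), RT. Calpain-I: 20 nM erythrocyte-derived, 100 μM Suc-Leu-Tyr-AMC, imidazole/CaCl2, pH 7.3. Cathepsins, pH 6.0 MES/EDTA/cysteine: B 0.25 nM liver, 100 μM Z-Phe-Arg-AMC; L 1 nM liver, 2 μM Z-Phe-Arg-AMC; S 0.5 nM recombinant, 20 μM Z-Val-Val-Arg-AMC. Cheng-Prusoff Ki, mean of 2–4 curves.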

cathepsin B = biological target: T3, cathepsin B (Homo sapiens, UniProt P07858); experiment: Cathepsin B enzyme inhibition in vitro (kinetic fluorescence assay); conditions: Ki(cathepsin B)/Ki(calpain) ratio
T3 construct: cathepsin B—isolated from human liver; purchased Calbiochem 219362; host or cells: human liver (tissue isolate)
Outline: as §1

cathepsin K = biological target: T4, cathepsin K (Homo sapiens, UniProt P43235); experiment: Cathepsin K enzyme inhibition in vitro (kinetic fluorescence assay); conditions: Ki(cathepsin K)/Ki(calpain) ratio
T4 construct: purchased Calbiochem 342001; host or cells: E. coli
T4 sequence (P43235 115-329): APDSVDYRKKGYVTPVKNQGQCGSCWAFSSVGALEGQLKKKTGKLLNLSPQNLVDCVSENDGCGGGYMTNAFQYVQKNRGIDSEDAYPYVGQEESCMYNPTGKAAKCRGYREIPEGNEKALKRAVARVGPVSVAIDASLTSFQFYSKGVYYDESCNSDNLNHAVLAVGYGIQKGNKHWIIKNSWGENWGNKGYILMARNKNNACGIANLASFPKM

cathepsin L = biological target: T5, cathepsin L (Homo sapiens, UniProt P07711); experiment: Cathepsin L enzyme inhibition in vitro (kinetic fluorescence assay); conditions: Ki(cathepsin L)/Ki(calpain) ratio
T5 construct: cathepsin L—isolated from human liver; purchased Calbiochem 219402; host or cells: human liver (tissue isolate)
Outline: as §1

T5 sequence (P07711 114-333): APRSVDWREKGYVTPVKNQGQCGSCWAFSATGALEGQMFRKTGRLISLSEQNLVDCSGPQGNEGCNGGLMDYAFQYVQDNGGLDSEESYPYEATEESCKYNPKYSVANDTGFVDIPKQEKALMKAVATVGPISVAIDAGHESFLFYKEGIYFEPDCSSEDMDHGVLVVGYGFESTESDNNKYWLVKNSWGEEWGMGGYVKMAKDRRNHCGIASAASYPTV
T2 sequence (P25774 115-331): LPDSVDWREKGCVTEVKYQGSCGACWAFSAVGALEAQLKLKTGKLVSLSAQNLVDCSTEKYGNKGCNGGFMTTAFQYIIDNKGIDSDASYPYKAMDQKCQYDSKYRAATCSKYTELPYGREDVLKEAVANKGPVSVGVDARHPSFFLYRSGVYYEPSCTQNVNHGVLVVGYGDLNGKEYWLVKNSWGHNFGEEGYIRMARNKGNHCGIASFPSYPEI

Compound	Ki (calpain-I) [nM]	Sel cat. S (cathepsin S)	Sel cat. B (cathepsin B)	Sel cat. K (cathepsin K)	Sel cat. L (cathepsin L)
Cl.NC(=O)C(=O)C(Cc1ccccc1)NC(=O)c1cccnc1-n1cnc(-c2ccc(CN3CCOCC3)cc2)c1 (centres unmarked) [Example 26, N-(3-Amino-1-benzyl-2,3-dioxopropyl)-2-{4-[4-(morpholin-4-ylmethyl)phenyl]-1H-imidazol-1-yl}nicotinamide hydrochloride]	< 40	++ (++ means a Ki(cathepsin S)/Ki(calpain) ratio of ≧100)	–	–	–
Cl.NC(=O)C(=O)C(Cc1cccnc1)NC(=O)c1cccnc1-n1ccc(-c2ccccc2)n1 (centres unmarked) [Example 88, N-[3-Amino-2,3-dioxo-1-(pyridin-3-ylmethyl)propyl]-2-(3-phenyl-1H-pyrazol-1-yl)pyridine-3-carboxamide hydrochloride]	–	++ (++ means a Ki(cathepsin S)/Ki(calpain) ratio of ≧100)	+ (+ means 10≦Ki(cathepsin B)/Ki(calpain)<30)	++ (++ means a Ki(cathepsin K)/Ki(calpain) ratio of ≧30)	++ (++ means a Ki(cathepsin L)/Ki(calpain) ratio of ≧50)
N-[3-Amino-2,3-dioxo-1-(phenylmethyl)propyl]-2-[3-(3,5-dichlorophenyl)-1H-pyrazol-1-yl]pyridine-3-carboxamide [Example 89]	–	++ (++ means a Ki(cathepsin S)/Ki(calpain) ratio of ≧100)	+ (+ means 10≦Ki(cathepsin B)/Ki(calpain)<30)	+ (+ means 10≦Ki(cathepsin K)/Ki(calpain)<30)	++ (++ means a Ki(cathepsin L)/Ki(calpain) ratio of ≧50)
COc1ccc(F)cc1-c1ccn(-c2ncccc2C(=O)NC(Cc2ccccc2)C(=O)C(N)=O)n1 (centres unmarked) [Example 130, N-[3-Amino-2,3-dioxo-1-(phenylmethyl)propyl]-2-{3-[5-fluoro-2-(methyloxy)phenyl]-1H-pyrazol-1-yl}pyridine-3-carboxamide]	–	++ (++ means a Ki(cathepsin S)/Ki(calpain) ratio of ≧100)	++ (++ means a Ki(cathepsin B)/Ki(calpain) ratio of ≧30)	++ (++ means a Ki(cathepsin K)/Ki(calpain) ratio of ≧30)	++ (++ means a Ki(cathepsin L)/Ki(calpain) ratio of ≧50)
NC(=O)C(=O)C(Cc1ccccc1)NC(=O)c1cccnc1-n1ccc(-c2c(Cl)cccc2Cl)n1 (centres unmarked) [Example 95, N-[3-Amino-2,3-dioxo-1-(phenylmethyl)propyl]-2-[3-(2,6-dichlorophenyl)-1H-pyrazol-1-yl]pyridine-3-carboxamide]	–	++ (++ means a Ki(cathepsin S)/Ki(calpain) ratio of ≧100)	++ (++ means a Ki(cathepsin B)/Ki(calpain) ratio of ≧30)	++ (++ means a Ki(cathepsin K)/Ki(calpain) ratio of ≧30)	++ (++ means a Ki(cathepsin L)/Ki(calpain) ratio of ≧50)
NC(=O)C(=O)C(Cc1ccccc1)NC(=O)c1cccnc1-n1ccc(-c2ccccn2)n1 (centres unmarked) [Example 35, N-(3-Amino-1-benzyl-2,3-dioxopropyl)-2-(3-pyridin-2-yl-1H-pyrazol-1-yl)nicotinamide]	–	++ (++ means a Ki(cathepsin S)/Ki(calpain) ratio of ≧100)	+ (+ means 10≦Ki(cathepsin B)/Ki(calpain)<30)	+ (+ means 10≦Ki(cathepsin K)/Ki(calpain)<30)	++ (++ means a Ki(cathepsin L)/Ki(calpain) ratio of ≧50)
NC(=O)C(=O)C(Cc1ccccc1)NC(=O)c1cccnc1-n1ccc(-c2ccc(F)cc2)n1 (centres unmarked) [Example 38, N-(3-Amino-1-benzyl-2,3-dioxopropyl)-2-[3-(4-fluorophenyl)-1H-pyrazol-1-yl]nicotinamide]	–	++ (++ means a Ki(cathepsin S)/Ki(calpain) ratio of ≧100)	+ (+ means 10≦Ki(cathepsin B)/Ki(calpain)<30)	+ (+ means 10≦Ki(cathepsin K)/Ki(calpain)<30)	++ (++ means a Ki(cathepsin L)/Ki(calpain) ratio of ≧50)
CC(C)c1ccc(-c2ccn(-c3ncccc3C(=O)NC(Cc3ccccc3)C(=O)C(N)=O)n2)cc1 (centres unmarked) [Example 87, N-[3-Amino-2,3-dioxo-1-(phenylmethyl)propyl]-2-{3-[4-(1-methylethyl)phenyl]-1H-pyrazol-1-yl}pyridine-3-carboxamide]	–	++ (++ means a Ki(cathepsin S)/Ki(calpain) ratio of ≧100)	++ (++ means a Ki(cathepsin B)/Ki(calpain) ratio of ≧30)	++ (++ means a Ki(cathepsin K)/Ki(calpain) ratio of ≧30)	++ (++ means a Ki(cathepsin L)/Ki(calpain) ratio of ≧50)
COc1c(C)cc(C)cc1-c1ccn(-c2ncccc2C(=O)NC(Cc2ccccc2)C(=O)C(N)=O)n1 (centres unmarked) [Example 121, N-[3-Amino-2,3-dioxo-1-(phenylmethyl)propyl]-2-{3-[3,5-dimethyl-2-(methyloxy)phenyl]-1H-pyrazol-1-yl}pyridine-3-carboxamide]	–	++ (++ means a Ki(cathepsin S)/Ki(calpain) ratio of ≧100)	++ (++ means a Ki(cathepsin B)/Ki(calpain) ratio of ≧30)	++ (++ means a Ki(cathepsin K)/Ki(calpain) ratio of ≧30)	++ (++ means a Ki(cathepsin L)/Ki(calpain) ratio of ≧50)
COc1ccc(CC(NC(=O)c2cccnc2-n2ccc(-c3ccc(F)cc3Cl)n2)C(=O)C(N)=O)cc1 (centres unmarked) [Example 111, N-(3-Amino-1-{[4-(methyloxy)phenyl]methyl}-2,3-dioxopropyl)-2-[3-(2-chloro-4-fluorophenyl)-1H-pyrazol-1-yl]pyridine-3-carboxamide]	–	++ (++ means a Ki(cathepsin S)/Ki(calpain) ratio of ≧100)	++ (++ means a Ki(cathepsin B)/Ki(calpain) ratio of ≧30)	++ (++ means a Ki(cathepsin K)/Ki(calpain) ratio of ≧30)	++ (++ means a Ki(cathepsin L)/Ki(calpain) ratio of ≧50)
